Target: T1, […]F508-CFTR (Homo sapiens, UniProt P13569, DEL508-508)
T1 construct: expressed in transfected cells
Assay: Assay results of Table 3: ΔF508-CFTR modulation, membrane potential optical assay (assay format not stated)
Assay type: cell-based
Conditions: NIH3T3 mouse fibroblasts stably expressing […]F508-CFTR (optical assays); for Efficacy: efficacy range; for EC50: potency range
Summary of the method: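 NIH3T3 mouse fibroblasts stably expressing ΔF508-CFTR; FRET membrane-potential dyes (CC2-DMPE/DiSBAC2(3)) read on VIPR II. Correctors: 16 h at 37° C. with compound, then 10 μM forskolin + 20 μM genistein in Cl⁻-free medium. Potentiators: cells at 27° C. 24 h, compound then 2-10 μM forskolin; EC50 and efficacy derived.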

T1 sequence (P13569 with tags, fused parts or gaps DEL508-508): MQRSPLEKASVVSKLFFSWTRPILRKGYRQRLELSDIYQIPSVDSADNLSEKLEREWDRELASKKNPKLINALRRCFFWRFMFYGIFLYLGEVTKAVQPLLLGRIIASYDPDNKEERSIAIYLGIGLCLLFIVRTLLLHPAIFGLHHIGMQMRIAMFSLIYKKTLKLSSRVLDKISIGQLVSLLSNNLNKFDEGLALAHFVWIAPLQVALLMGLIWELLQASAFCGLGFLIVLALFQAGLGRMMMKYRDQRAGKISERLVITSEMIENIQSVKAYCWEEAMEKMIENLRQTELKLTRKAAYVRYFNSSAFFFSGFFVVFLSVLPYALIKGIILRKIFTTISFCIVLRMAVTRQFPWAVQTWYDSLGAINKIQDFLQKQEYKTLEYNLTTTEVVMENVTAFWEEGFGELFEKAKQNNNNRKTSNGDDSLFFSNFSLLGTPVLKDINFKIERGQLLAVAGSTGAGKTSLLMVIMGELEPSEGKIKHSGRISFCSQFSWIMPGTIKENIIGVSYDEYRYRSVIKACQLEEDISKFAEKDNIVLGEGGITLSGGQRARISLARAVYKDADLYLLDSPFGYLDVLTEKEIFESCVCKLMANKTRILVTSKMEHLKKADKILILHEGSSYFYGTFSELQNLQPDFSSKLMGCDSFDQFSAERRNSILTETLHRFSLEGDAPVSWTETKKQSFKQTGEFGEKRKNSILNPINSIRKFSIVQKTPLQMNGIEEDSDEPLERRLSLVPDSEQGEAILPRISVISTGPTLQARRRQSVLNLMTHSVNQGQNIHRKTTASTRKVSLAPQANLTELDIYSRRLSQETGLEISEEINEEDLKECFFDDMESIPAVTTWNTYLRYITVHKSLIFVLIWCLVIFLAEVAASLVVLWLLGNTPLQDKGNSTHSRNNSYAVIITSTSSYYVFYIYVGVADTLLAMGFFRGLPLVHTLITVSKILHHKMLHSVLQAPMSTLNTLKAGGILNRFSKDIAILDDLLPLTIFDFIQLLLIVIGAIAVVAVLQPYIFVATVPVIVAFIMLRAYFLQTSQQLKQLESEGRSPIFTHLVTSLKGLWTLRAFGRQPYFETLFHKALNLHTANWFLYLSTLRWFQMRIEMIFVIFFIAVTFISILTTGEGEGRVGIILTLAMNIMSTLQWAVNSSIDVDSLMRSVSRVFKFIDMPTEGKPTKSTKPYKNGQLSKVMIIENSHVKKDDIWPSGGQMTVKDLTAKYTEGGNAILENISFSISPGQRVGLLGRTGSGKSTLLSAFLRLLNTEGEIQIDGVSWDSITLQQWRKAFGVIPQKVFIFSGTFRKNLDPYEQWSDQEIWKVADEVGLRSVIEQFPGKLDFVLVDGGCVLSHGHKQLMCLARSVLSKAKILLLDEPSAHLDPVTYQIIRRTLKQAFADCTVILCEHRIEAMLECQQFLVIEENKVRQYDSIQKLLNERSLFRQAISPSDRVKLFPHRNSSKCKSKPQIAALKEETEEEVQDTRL

EC50 [µM]	Structure (SMILES)	Efficacy
> 5	NC(=O)c1cc(-c2ccccc2)nc(N2CCC(n3c(=O)[nH]c4ccccc43)CC2)n1 [Compound 139]	++ (++ corresponds to Efficacy between 100 and 50)
1 to 5	NC(=O)c1cc(-c2ccc(Cl)c(Cl)c2)nc(N2CCCCC2)n1 [Compound 140]	++ (++ corresponds to Efficacy between 100 and 50)
1 to 5	CCN(CC)C(=O)c1cc(-c2ccccc2)nc(N(CC)CC)n1 [Compound 141]	++ (++ corresponds to Efficacy between 100 and 50)
> 5	COc1ccc(-c2cc(C(N)=O)nc(N3CCCCC3)n2)cc1 [Compound 142]	++ (++ corresponds to Efficacy between 100 and 50)
> 5	NC(=O)c1cc(-c2ccccc2)nc(N2CCC(O)(Cc3ccccc3)CC2)n1 [Compound 143]	+ (+ corresponds to Efficacy less than 50)
< 1	CCN(CC)c1nc(C(N)=O)cc(-c2ccc(Cl)cc2)n1 [Compound 147]	++ (++ corresponds to Efficacy between 100 and 50)
1 to 5	NC(=O)c1cc(-c2ccccc2OC(F)(F)F)nc(N2CCCCC2)n1 [Compound 152]	++ (++ corresponds to Efficacy between 100 and 50)
> 5	CNC(=O)c1cc(-c2ccccc2)nc(N2CC=CCC2)n1 [Compound 153]	++ (++ corresponds to Efficacy between 100 and 50)
> 5	C#CCNc1nc(C(N)=O)cc(-c2ccccc2)n1 [Compound 154]	+ (+ corresponds to Efficacy less than 50)

The remaining lines, values behind:

Structure (SMILES)	EC50 [µM]	Efficacy
COc1ccc(C2(CNc3nc(C(N)=O)cc(-c4ccccc4)n3)CC2)cc1OC [Compound 132]	> 5	+++ (+++ corresponds to Efficacy greater than 100)
CCN(CC)c1nc(C(N)=O)cc(-c2cc(F)ccc2OC)n1 [Compound 133]	< 1	++ (++ corresponds to Efficacy between 100 and 50)
CC1CN(c2nc(C(N)=O)cc(-c3ccccc3)n2)CC(C)O1 (stereo not shown) [Compound 134]	> 5	++ (++ corresponds to Efficacy between 100 and 50)
COc1ccccc1-c1cc(C(N)=O)nc(N2CC=CCC2)n1 [Compound 135]	> 5	++ (++ corresponds to Efficacy between 100 and 50)
NC(=O)c1cc(-c2ccccc2)nc(CC2CCCCC2)n1 [Compound 136]	> 5	++ (++ corresponds to Efficacy between 100 and 50)
COc1ccc(F)cc1-c1cc(C(N)=O)nc(N2CCCCC2)n1 [Compound 137]	1 to 5	++ (++ corresponds to Efficacy between 100 and 50)
CCNc1nc(C(N)=O)cc(-c2cccc(OC)c2)n1 [Compound 138]	> 5	++ (++ corresponds to Efficacy between 100 and 50)
NC(=O)c1cc(-c2csc3ccccc23)nc(N2CCCCC2)n1 [Compound 144]	> 5	++ (++ corresponds to Efficacy between 100 and 50)
C#CCNc1nc(C(N)=O)cc(-c2cccc(OC)c2)n1 [Compound 145]	> 5	++ (++ corresponds to Efficacy between 100 and 50)
NC(=O)c1cc(-c2ccccc2Oc2ccccc2)nc(N2CCCCC2)n1 [Compound 146]	1 to 5	+++ (+++ corresponds to Efficacy greater than 100)
NC(=O)c1cc(-c2ccccc2)nc(N2CCC3CCCCC3C2)n1 (stereo not shown) [Compound 148]	1 to 5	++ (++ corresponds to Efficacy between 100 and 50)
CC1CCCN(c2nc(C(N)=O)cc(-c3ccccc3)n2)C1 (stereo not shown) [Compound 149]	> 5	++ (++ corresponds to Efficacy between 100 and 50)
CCCN(CC1CC1)c1nc(C(=O)N(C)C)cc(-c2ccccc2)n1 [Compound 150]	1 to 5	++ (++ corresponds to Efficacy between 100 and 50)
CCN(CC)c1nc(C(N)=O)cc(-c2cc(F)cc(F)c2)n1 [Compound 151]	1 to 5	+++ (+++ corresponds to Efficacy greater than 100)

— patent US8822451B2, “Modulators of ATP-binding cassette transporters” (Vertex Pharmaceuticals Incorporated, priority 2005, dated 2014)
